Source: US20260144815A1, “BLOOD COAGULATION TIME SHORTENING AGENT FOR BLOOD SPECIMEN DEFICIENT IN COAGULATION FACTOR XII” (SEKISUI MEDICAL CO., LTD., priority 2022, published 2026)

System: FXII-deficient specimens
Assay: Test 2: APTT coagulation time measurement of FXII-deficient specimens, zinc chloride basic prescription
Format: biochemical, human
Details: metal salt used instead of zinc chloride in combination with the polymer
Text: The following specimens were used: • FXII-deficient specimens (specimens derived from FXII-deficient patients, N=3).
The prescription was the same as that in the test 1 except that copper sulfate pentahydrate in the first reagent (R1) was changed to zinc chloride.
In the control, LIPIDURE (R) was not added.
Test reagents 5-1 to 5-3: zinc chloride in R1 of the basic prescription was changed to the metal salt compound shown in Table 5, and LIPIDURE (R)-BL205 was further added. As the control, the test reagent 4-1 was used.
R1 and R2 were prepared by the same procedure as in the test 1, the coagulation time (APTT) was measured, and the variation rate (%) of APTT with the test reagent with respect to the control was determined.

| Compound | coagulation time of FXII-deficient specimens |
| --- | --- |
| O.O.O.O.[Cl][In]([Cl])[Cl] [indium (III) chloride tetrahydrate] | further shortened |
| O.O.O.O.[Cl][Mn][Cl] [manganese (II) chloride tetrahydrate] | further shortened |
